Measured values reported in US11660309B2, “Prevention and treatment of inflammatory conditions” (GRI BIO, INC., priority 2011, dated 2023).
“Also recorded” adds a separate entry of the source.

Key:
type I NKT cells [1] = experiment: In vitro αGalCer-stimulated proliferation of splenic type I NKT cells ([3H]-thymidine incorporation); type: cell-based, naïve B6 mice; settings: for type I NKT cell proliferation at optimal concentration of RAR agonist: Example 15, αGalCer 10 ng/ml, comparison among ATRA, Tretinoin, AM580, AC55649, CD1530
Protocol: Retinoic acid receptors (RARs) comprise three major subtypes: RARα, RAR β, and RARγ. The RAR agonist ATRA is not selective for a specific subtype. The contribution of RAR subtypes to inhibition of type I NKT cell activity was tested with subtype-selective RAR agonists as follows. Splenic cells were isolated from naïve B6 (WT) mice and cultured in vitro in the presence of [^3H]-thymidine, an optimal concentration of αGalCer, and graded concentrations of the pan-RAR agonist ATRA, the RARα agonist AM580, the RAR β 2 agonist AC55649 or the RARγ agonist CD1530. Proliferation of the type I NKT cells in response to αGalCer stimulation was measured by [^3H]-thymidine incorporation. […]
In vitro proliferation and cytokine release assays were performed on freshly isolated splenocytes and type I NKT cell hybridomas (1.2 Hyb). The cells were cultured in the presence of [3H]-thymidine and an optimal concentration of αGalCer (10 ng/ml) with titrating concentrations of ATRA, Tretinoin, the RARα agonist AM580, the RAR β agonist AC55649 or the RARγ agonist CD1530. Proliferation of the type I NKT cells in response to αGalCer stimulation was quantified by [^3H]-thymidine incorporation. IL-2 levels were measured using IL-2 sandwich ELISA. Optimal concentrations of the RAR agonists was determined. […]

type I NKT cells [2] = experiment: Ex vivo proliferation and cytokine response to αGalCer of type I NKT cells from RAR agonist injected mice; type: in vivo; settings: for proliferative response of splenic type I NKT cells to αGalCer stimulation: Example 17, cells from mice injected i.p. 15 mg/kg daily for 5 days, vs vehicle (DMSO)
Protocol: Functional changes in type I NKT cells following ATRA administration were further tested. In two independent experiments, groups of Black 6 (WT) mice were injected intraperitoneally with 0.3 mg/animal (˜15 mg/Kg body weight) ATRA or vehicle (DMSO) daily for a period of 5 days. Type I NKT cells were purified and cultured in vitro with increasing concentrations of αGalCer. Cell proliferation was measured and supernatants were collected. The cytokine response of the isolated type I NKT after in vitro challenge with αGalCer was determined by sandwich ELISA for IFN-γ, IL-4, IL-6, IL-10, IL-12, and IL-13. […] No secretion of IFN-γ, IL-6, IL-10, IL-12, or IL-13 in response to αGalCer stimulation was detected from type I NKT cells isolated from ATRA injected mice.
(§1) Functional changes in type I NKT cells following in vivo administration of Tazarotene or ATRA was tested. Groups of mice were injected intraperitoneally with […] (15 mg/kg), 300 μg Tazarotene (15 mg/kg) or vehicle (DMSO) daily for a period of 5 days. Splenic Type I NKT cells were purified and cultured in vitro with increasing concentrations of αGalCer. Cell proliferation was measured by quantification of [^3H]-thymidine incorporation and the results are shown at FIG. 17.

liver type I NKT cells = experiment: Flow cytometry count of liver type I NKT cells (αGalCer/CD1d-tetramer/TCRβ) after in vivo administration; settings: mice injected i.p. 15 mg/kg daily for 5 days
Protocol: as §1
Mononuclear cells were isolated from livers of mice injected with either ATRA, Tazarotene or vehicle (DMSO) and stained with αGalCer/CD1d-tetramer and a pan anti-TCRβ antibodies. Flowcytometry was performed and the population of αGalCer/CD1d-tetramer/TCRβ expressing cells (type I NKT cells) was quantified as shown in FIG. 18.

[3] = test system: alcohol-induced liver injury; experiment: Alcohol-induced liver injury, chronic plus binge ethanol feeding: serum ALT and liver histology; type: in vivo, B6 (WT) male mice
Source text: Following acclimatization with nutritionally adequate Lieber-DeCarli liquid diet for a week, 6-8 week old male C57BL/6J mice (B6) and Jα18−/− mice, which lack type I NKT cells but not type 2 NKT cells, were given free access to a liquid diet containing 5% ethanol or an isocaloric dextrin maltose-containing diet (Bio-Serv, NJ). Precautions were taken to prepare the diet fresh every day using autoclaved water in sterilized feeders, changing feed daily.
B6 and Jα18−/− mice receiving the ethanol-containing diet were separated into two groups, the chronic ethanol feeding group and the chronic plus binge ethanol feeding group. Mice in the chronic ethanol feeding group were fed liquid diet containing 5% ethanol for up to 4-5 weeks. Mice in the chronic plus binge ethanol feeding group were fed liquid diet containing 5% ethanol for 10 days followed by (on day 11) a single high dose of gavaged ethanol (5 g/kg body weight). Mice in the control group were gavaged with isocaloric dextrin maltose. Following gavage, mice were kept on a temperature controlled warm pad and monitored. Though initially slow moving, most mice receiving the high dose of gavaged ethanol regained normal behavior within hours. Mice were euthanized 8-9 hr after gavage. […]
Serum ALT levels were determined for each group of mice. […]

[4] = test system: Type I NKT hybridoma cells (Hy1.2); experiment: IL-2 secretion by Hy1.2 cells pretreated with ATRA in the absence of antigen-presenting cells; type: cell-based; settings: Hy1.2 pretreated 24 hr with 5, 10 or 20 μg/ml ATRA, washed, then APCs + graded αGalCer, 16 hour
Protocol: The effect of ATRA treatment on type I NKT cells in the absence of antigen-presenting cells was also measured. Type I NKT hybridoma cells (Hy1.2) were cultured in vitro either without ATRA or with 5 μg/ml, 10 μg/ml, or 20 μg/ml ATRA for 24 hr. The cells were then washed three times and co-cultured with irradiated splenocytes (APCs) in the presence of graded concentrations of the lipid antigen, αGalCer. Supernatants were collected 16 hour later and IL-2 levels were measured using IL-2 sandwich ELISA.

[5] = test system: MBPAc1-9-reactive CD4+ T cells; experiment: Proliferation of MBPAc1-9-reactive CD4+ T cells ([3H]-thymidine incorporation); type: cell-based, naïve B10.PL VB8.2 TCR transgenic mice; settings: ATRA 0.15, 1.2, 18.8 μg/ml
Protocol: The effect of ATRA on class II MHC-restricted conventional CD4 T Cells was tested by isolating myelin basic protein MBPAc1-9-reactive CD4+ T cells from naïve B10.PL VB8.2 TCR transgenic mice and culturing the cells in vitro with [^3H]-thymidine and an optimal concentration of MBPAc1-9 in the presence or absence of graded concentrations of ATRA (0.15, 1.2, 18.8 μg/ml). Proliferation of the MBPAc1-9-reactive CD4+ T cells was measured by [^3H]-thymidine incorporation.

type I NKT cells (Hy1.2) = experiment: IL-2 secretion by type I NKT cell hybridoma (Hy1.2) with APCs and αGalCer (IL-2 sandwich ELISA); type: cell-based
Protocol: The affect of ATRA on IL-2 cytokine secretion by a type I NKT cells in response to an in vitro challenge with αGalCer was tested by co-culturing NKT cells (Hy1.2) and irradiated antigen-presenting cells (APCs) in vitro with an optimal concentration of αGalCer in the presence or absence of ATRA (0.15 μg/ml, 1.2 μg/ml, or 18.8 μg/ml) for a period of 16 hours. Supernatants were collected and secreted IL-2 levels were measured using IL-2 sandwich ELISA.
In vitro proliferation and cytokine release assays were performed on freshly isolated splenocytes and type I NKT cell hybridomas (1.2 Hyb). The cells were cultured in the presence of [3H]-thymidine and an optimal concentration of αGalCer (10 ng/ml) with titrating concentrations of ATRA, Tretinoin, the RARα agonist AM580, the RAR β agonist AC55649 or the RARγ agonist CD1530. Proliferation of the type I NKT cells in response to αGalCer stimulation was quantified by [^3H]-thymidine incorporation. IL-2 levels were measured using IL-2 sandwich ELISA. Optimal concentrations of the RAR agonists was determined.
In vitro proliferation and cytokine release assays were performed on freshly isolated splenocytes and type I NKT cell hybridomas (1.2 Hyb). The cells were cultured in the presence of [^3H]-thymidine and an optimal concentration of αGalCer (10 ng/ml) with increasing concentrations of ATRA or Tazarotene. Proliferation of the type I NKT cells in response to αGalCer stimulation was quantified by [H]-thymidine incorporation. IL-2 levels were measured using IL-2 sandwich ELISA.

[6] = cells from mice injected i.p. with 0.3 mg/animal ATRA daily for 5 days
[7] = Example 16, splenocytes, αGalCer 10 ng/ml, increasing concentrations of ATRA or Tazarotene
[8] = Example 16, 1.2 Hyb, αGalCer 10 ng/ml, increasing concentrations of ATRA or Tazarotene

## CCCCCCCCc1ccc(-c2ccc(C(=O)O)cc2)cc1 [AC55649]
Type I NKT cells [1]; Example 12, 10^1 μg/ml
  type I NKT cell proliferation in response to αGalCer: low or minimal proliferation
Type I NKT cells [1]; Example 12, graded concentrations up to (below) 10^1 μg/ml
  type I NKT cell proliferation in response to αGalCer: Reduced cell proliferation

## CC1(C)CCC(C)(C)c2cc(C(=O)Nc3ccc(C(=O)O)cc3)ccc21 [AM580]
Type I NKT cells [1]; Example 12, 10^1 μg/ml
  type I NKT cell proliferation in response to αGalCer: proliferation was maintained

## CC1=C(/C=C/C(C)=C/C=C/C(C)=C/C(=O)O)C(C)(C)CCC1 [ATRA, all trans retinoic acid]
Type I NKT cells [2]
  proliferative response of splenic type I NKT cells to αGalCer stimulation: inhibits type I NKT cell activity
Type I NKT cells [2]; cells from WT mice injected i.p. with 0.3 mg/animal ATRA daily for 5 days
  proliferation of type I NKT cells in response to αGalCer stimulation: did not proliferate
Type I NKT cells [2]; [6]
  IFN-γ secretion in response to αGalCer stimulation: No secretion
  IL-4 secretion in response to αGalCer stimulation: Reduced levels
  IL-6 secretion in response to αGalCer stimulation: No secretion
  IL-10 secretion in response to αGalCer stimulation: No secretion
  IL-12 secretion in response to αGalCer stimulation: No secretion
  IL-13 secretion in response to αGalCer stimulation: No secretion
Liver type I NKT cells
  numbers of type I NKT cells in the livers vs control: no significant difference
[3]
  protection from liver damage following excess alcohol consumption (summary of FIGS. 6 and 7): significantly inhibits liver damage
[3]; B6 mice, sulfatide or ATRA injected
  liver histology for hepatic steatohepatitis (fatty liver disease): little sign of fatty liver disease; also recorded: appears relatively normal
[4]
  IL-2 secretion: inhibits IL-2 secretion
Type I NKT cells [1]; 0.15 μg/ml ATRA + αGalCer
  αGalCer-induced type I NKT cell proliferation compared with αGalCer alone: similar
Type I NKT cells [1]; 1.2 μg/ml ATRA + αGalCer
  αGalCer-induced type I NKT cell proliferation compared with αGalCer alone: reduced
Type I NKT cells [1]; 18.8 μg/ml ATRA + αGalCer
  αGalCer-induced type I NKT cell proliferation compared with αGalCer alone: greatest inhibition
Type I NKT cells [1]; ATRA alone, no αGalCer
  type I NKT cell proliferation: No or minimal proliferation
Type I NKT cells [1]; Example 12, 10^1 μg/ml
  type I NKT cell proliferation in response to αGalCer: low or minimal proliferation
Type I NKT cells [1]; Example 14, 10^1 μg/ml
  type I NKT cell proliferation in response to αGalCer: no or minimal proliferation
Type I NKT cells [1]
  type I NKT cell proliferation at optimal concentration of RAR agonist: lowest levels of proliferation
Type I NKT cells [1]; [7]
  type I NKT cell proliferation: inhibit
[5]
  MBPAc1-9-stimulated proliferation of CD4+ T cells: No inhibition; also recorded: does not directly inhibit
Type I NKT cells (Hy1.2); 0.15 μg/ml ATRA, αGalCer, irradiated APCs, 16 hours
  IL-2 secretion: not significantly affected
Type I NKT cells (Hy1.2); 1.2 μg/ml ATRA, αGalCer, irradiated APCs, 16 hours
  IL-2 secretion: significant reductions
Type I NKT cells (Hy1.2); 18.8 μg/ml ATRA, αGalCer, irradiated APCs, 16 hours
  IL-2 secretion: greatest reduction
Type I NKT cells (Hy1.2); [8]
  IL-2 secretion: inhibit

## O=C(O)c1ccc(-c2ccc3cc(O)c(C45CC6CC(CC(C6)C4)C5)cc3c2)cc1 [CD1530]
Type I NKT cells [1]; Example 12, 10^1 μg/ml
  type I NKT cell proliferation in response to αGalCer: low or minimal proliferation
Type I NKT cells [1]
  type I NKT cell proliferation at optimal concentration of RAR agonist: lowest levels of proliferation
Type I NKT cells (Hy1.2); Example 15, 1.2 Hyb, αGalCer 10 ng/ml, comparison among RAR agonists
  IL-2 secretion at optimal concentration of RAR agonist: lowest levels of IL-2 secretion

## Tazarotene
Type I NKT cells [2]
  proliferative response of splenic type I NKT cells to αGalCer stimulation: lowest levels of proliferation
Liver type I NKT cells
  numbers of type I NKT cells in the livers vs control: no significant difference
Type I NKT cells [1]; [7]
  type I NKT cell proliferation: achieves its inhibitory effects at lower concentrations; also recorded: better inhibition of type I NKT cells than ATRA
Type I NKT cells (Hy1.2); [8]
  IL-2 secretion: achieves its inhibitory effects at lower concentrations
